Data as given in patent US20260207589A1, “Combination of Talazoparib and Enzalutamide in the Treatment of Metastatic Castration-Resistant Prostate Cancer” (Pfizer Inc., priority 2022, published 2026).

Tests used:
[1] = test system: patients with mCRPC with HRR gene alterations; experiment: TALAPRO-2 (NCT03395197) Phase 3, Part 2, DDR/HRR-deficient cohort (Cohort 2): efficacy; format: in vivo, human
Experimental: In one embodiment, the increase in survival is measured by any of the following: progression free survival (PFS), radiographic PFS (rPFS), and overall survival (OS). PFS, rPFS and OS are clinically meaningful endpoints for measuring an increase in survival for patients treated with the combination of the present invention. […] OS is the length of time from either the date of diagnosis or the start of treatment for a disease, such as cancer, that patients diagnosed with the disease are still alive. In a clinical trial, measuring the PFS and OS are ways to see how well a new treatment works. For purposes of the clinical trial described here, rPFS refers to the time from the date of randomization to first objective evidence of radiographic progression assessed in soft tissue per Response Evaluation Criteria in Solid Tumors version 1.1 (RECIST 1.1) or in bone (upon subsequent confirmation) per Prostate Cancer Working Group (PCWG3) guidelines by Blinded Independent Central Review (BICR), or death, whichever occurs first. For purposes of the clinical trial described here, OS refers to the time from the date of randomization to death due to any cause.
This was an international, Phase 3, randomized, double-blind, two-part study for mCRPC patients, TALAPRO-2 (NCT03395197).
Part 2 was randomized, double-blind, and placebo-controlled and evaluated the efficacy and safety of talazoparib in combination with enzalutamide compared with placebo in combination with enzalutamide. From February 2019 to January 2022, 399 patients (169 from Cohort 1) were randomized 1:1 to receive either talazoparib or matching placebo in combination with open-label enzalutamide once daily. Randomization was stratified by prior novel hormonal therapy or taxane-based chemotherapy, e.g., abiraterone, orteronel, or docetaxel for castration-sensitive prostate cancer (yes/no) and DDR mutational status, also referred to as, homologous recombination repair gene alteration status (deficient vs. non deficient/unknown). Stratification factors were specified by the investigator, and recorded in the interactive web response system (IWRS) before randomization and used for the stratified analysis of the primary efficacy endpoint. However, as the IWRS grouped non-deficient and unknown status, a secondary stratified analysis based on homologous recombination repair gene alteration status derived from the clinical database was also performed and used to identify the non-deficient subpopulation.
Genomic screening to identify alterations in DDR genes was optional for patients in Part 1, but it was required for randomization in Part 2. Mutational status was determined by testing for the presence of mutations in defined DDR genes likely to sensitize to PARP inhibition using next generation sequencing (NGS) based gene panel test. Prior to randomization, patients consented to provide solid tumor tissue (de novo or archival) and/or blood-based samples, which were prospectively assessed for homologous recombination repair (HRR) gene alterations (BRCA1, BRCA2, PALB2, ATM, ATR, CHEK2, FANCA, RAD51C, NBN, MLH1, MRE11A, CDK12) using FoundationOne® CDx and/or FoundationOneLiquid® CDx. […] One patient was enrolled based on ctDNA results only. For exploratory analysis, available blood-based samples (not collected in China) were retrospectively tested using FoundationOneLiquid® CDx to determine the status of patients with a prospectively-assessed status of unknown.

[2] = test system: patients with mCRPC with HRR gene alterations; details: male, human, in vivo
[3] = BICR, measurable soft tissue disease
[4] = DDR-deficient population, overall
[5] = Non-BRCAm HRRm incl. 4 patients without HRR gene mutations (N = 129 vs 115)

For `CNC(=O)c1ccc(N2C(=S)N(c3ccc(C#N)c(C(F)(F)F)c3)C(=O)C2(C)C)cc1F` [Placebo + Enzalutamide], the CR rate [1, 3] was 18.5%, the PD rate [1, 3] was 20.0% and the PR rate [1, 3] was 21.5%. For the same compound, the “rPFS events by BICR” value ([1]; BRCA1/2 mutations subgroup) was 54 events, the “rPFS, Number of events” value ([1]; BRCAm (N = 71 vs 84)) was 54 (64) n (%) and the “Median PFS2” value ([1]; DDR-deficient population) was 28.1 months. For the same compound, the “Median investigator-assessed rPFS” value ([1]; DDR-deficient population) was 16.9 months, the “Median time to use of cytotoxic chemotherapy” value ([1]; DDR-deficient population) was “NE/NR” and the PFS2 events ([1]; DDR-deficient population) was 61 events. For the same compound, the “PSA response rate (decline from baseline PSA by at least 50%, confirmed)” value ([1]; DDR-deficient population) was 63.1%, the “Time to cytotoxic chemotherapy, events” value ([1]; DDR-deficient population) was 65 events and the “Median rPFS by BICR” value [1, 4] was 13.8 months. For the same compound, the “rPFS events by BICR” value [1, 4] was 104 events, the “Median OS” value ([1]; DDR-deficient population, interim) was 33.7 months and the “rPFS, Median months (95% CI)” value [1, 5] was 16.7 (13.8, 27.7) months. For the same compound, the “rPFS, Number of events” value [1, 5] was 50 (43) n (%), the “rPFS by BICR, Median” value ([1]; gene subgroup: ATM Cluster) was 27.7 mo and the “rPFS by BICR, Median” value ([1]; gene subgroup: All HRR-deficient) was 13.8 mo. For the same compound, the “rPFS by BICR, Median” value ([1]; gene subgroup: BRCA Cluster) was 11.0 mo, the “rPFS by BICR, Median” value ([1]; gene subgroup: CDK12 Cluster) was 13.8 mo and the “rPFS by BICR, Median” value ([1]; gene subgroup: Only ATM) was 27.7 mo. The “rPFS by BICR, Median” value ([1]; gene subgroup: Only BRCA1) was 11.7 mo, the “rPFS by BICR, Median” value ([1]; gene subgroup: Only BRCA2) was 11.0 mo and the “rPFS by BICR, Median” value ([1]; gene subgroup: Only CDK12) was 13.8 mo. For the same compound, the “rPFS by BICR, Median” value ([1]; gene subgroup: Only PALB2) was 8.6 mo, the “rPFS by BICR, Median” value ([1]; gene subgroup: PALB2 Cluster) was 8.3 mo and the “patients who had died” value ([1]; interim OS analysis, 24% maturity overall) was 26.6%. For the same compound, the “OS events (deaths)” value ([1]; interim OS analysis, 96 deaths) was 53 events, the “Median OS (printed: Median rPFS)” value ([1]; non-BRCA1/2 mutations subgroup) was 33.7 months and the “rPFS events by BICR” value ([1]; non-BRCA1/2 mutations subgroup) was 50 events. For the same compound, the “Median rPFS by BICR” value ([1]; non-BRCA1/2 mutations subgroup, N=240) was 16.7 months, the “Objective response rate by BICR (RECIST 1.1)” value ([1]; patients with measurable soft tissue disease at baseline) was 40.0% and the “Patients with Grade 3 or higher TRAEs” value [2] was 28 (14) n (%). For the same compound, the “Patients with any TRAEs” value [2] was 144 (72.4) n (%).
